Data set [1] has as its system cytoplasmatic membrane integrity. The data set is classed as cell-based. Here is the method:
(§1) However, in order to verify further the robustness of the developed methods, these algorithms were tested on FOV-averaged data generated from a real toxicity assay. The cell-based experiment involved the influence of several drugs and the applications of two fluorescent markers during a 5-hour time course. The general background for such an experimental study is outlined in the article by O'Brien et al.
The first example analyzed the cytoplasmatic membrane integrity, as indicated by the TOTO-3 marker. TOTO-3 stains cell nuclei only after cell plasma membrane disruption. The response1(t) generated by disruption to the membrane is therefore a curve representing the increase of cell nuclei intensity in TOTO-3 channel. This intensity was measured by a microscopy HTS system. However, the exact moment when a particular membrane became disrupted was unpredictable.
The analysis therefore used stochastic fitting involving a single time parameter (the width of the box-shaped distribution of starting times of the response).
FIG. 11 represents the raw TOTO-3 response. The TOTO-3 response was taken for two values of drug concentration, denoted “high” and “low”.
Data fitting was performed using a response1(t) function having an exponential rising shape. τ was equal to 15 minutes, A=0.5 and B=1.48. The starting time distribution was box shaped with tmin=0 and widtht−fitted.

For data set [2], the system named is mitochondrial membrane potential. In kind it is cell-based. The procedure:
Various examples describing various real-life responses obtained using the mitochondrial marker TMRM will now be given. In actual images of cells stained with TMRM, the level of fluorescence intensity is related to the mitochondrial membrane potential, loss of which can be an indicator of cytotoxicity.
as §1
The second example analyzed a mitochondrial marker (TMRM) response. […] It was assumed that all cells started reacting immediately after drug addition. The reaction of a mitochondrial potential to a perturbation (i.e. a drug) is considered to be potentially very diverse.
The expression defined in Equation 16 above is very flexible, and uses as a fitting parameter the single time scale (“τ”), amplitude (“range”) and another parameter (“α”) for controlling response nonlinearity.
The TMRM response was taken for two values of drug concentration, denoted “high” and “low”.
Data fitting was performed using the technique discussed in relation to Equation 16, above. […]

In the case of `CC[C@H](C)C(=O)O[C@H]1C[C@@H](C)C=C2C=C[C@H](C)[C@H](CC[C@@H]3C[C@@H](O)CC(=O)O3)[C@H]21` [lovastatin], the “TOTO-3 response speed (characteristic time) relative to controls” value in data set [1] was “responding faster than controls”.
Same read-out and setting: the result for `CC/C(=C(\c1ccccc1)c1ccc(OCCN(C)C)cc1)c1ccccc1` [tamoxifen] reads “responding faster than controls”.
Turning to `COc1ccc(CCN2CCC(Nc3nc4ccccc4n3Cc3ccc(F)cc3)CC2)cc1` [astemizole], in data set [1], the “TOTO-3 response speed (characteristic time) relative to controls” value is “responding faster than controls”.
Regarding `O=C1CN(/N=C/c2ccc(-c3ccc([N+](=O)[O-])cc3)o2)C(O)=N1` [dantrolene], the “effect on mitochondrial function (TMRM response)” value in data set [2] is “no effect”.
Same read-out and setting: the result for `Cc1oncc1C(=O)Nc1ccc(C(F)(F)F)cc1` [leflunomide] reads “no effect”.

The values above are taken from patent publication US9047503B2, “System and method for automated biological cell assay data analysis” (GE HEALTHCARE UK LIMITED, priority 2010, dated 2015).
